Data from patent US20190070124A1, “COMPOSITIONS OF CB2 RECEPTOR SELECTIVE AGONISTS FOR TREATMENT OF MENTAL DISORDERS” (priority 2016, published 2019).
“Also recorded” adds a separate entry of the source.

Experiment: Body weight in the neonatal PCP mouse model of schizophrenia
[1] = PND 35-37, postnatal BCP 10 mg/kg 1 h after PCP

With “trans-(1R,9S)-8-methylene-4,11,11trimethylbicyclo[7.2.0]undec-4-ene [BCP]” the “body weight at PND 17” value (BCP 10 mg/kg 1 h after PCP, ethanol-based vehicle, PCP+BCP vs PCP) was “no significant difference between groups treated with PCP with or without BCP”, the body weight (BCP 10 mg/kg 1 h after PCP, postnatal, DMSO-based vehicle) was “completely reversed the effect of PCP on body weight” and the body weight (BCP 10 mg/kg injected 1 h after each PCP 5 mg/kg dose, PND 3-16, Cremophor EL:ethanol:saline vehicle, weight PND 3-17) was “significantly reversed the inhibitory effect of PCP on body weight; also recorded: reversed the reduction in body weight during the first week of life; also recorded: did not restore the weight completely”. For the same substance, the “effect on PCP-induced reduction of body weight, males” value (PND 17, BCP 10 mg/kg 1 h after PCP, ethanol-based vehicle) was “appeared to be more prominent”, the “body weight, females” value [1] was “significantly reversed the effect of PCP on female body weight” and the “body weight, males” value [1] was “no significant difference in male body weight between the groups”. The body weight (PND 104, postnatal PCP, BCP 5 mg/kg PND 43-61) was “did not increase body weight in females and males, rather reduced body weight of PCP+BCP treated group”, the “body weight of adolescent mice” value (postnatal PCP, BCP 5 mg/kg injected twice a week PND 43-61 (DMSO:Cremophor EL:saline)) was “did not affect body weight of adolescent mice” and the “body weight, male mice” value (postnatal day 83, oral BCP 10 mg/kg twice a week, PND 43-62) was “did not affect body weight of male mice at postnatal day 83; also recorded: did not affect their body weight”.
